Assay results reported in patent US11376215B2, “Feed composition for improving intraintestinal environment” (AJINOMOTO CO., INC., priority 2017, dated 2022).

Key:
Type in all cases: cell-based
bifidobacteria [1] = experiment: Experimental Example 1-1: addition test of amino acid and fructo-oligosaccharide to human feces suspension; details: amino acid added together with 0.5% FOS, anaerobic culture 4 days at 37° C., quantitative PCR, compared with FOS alone
Procedure: The PBS solutions for the Examples and Comparative Examples shown in Table 1-1 were prepared and used as media for a feces culture. PBS alone was used as a control. Fructo-oligosaccharide (FOS) manufactured by Wako Pure Chemical Industries, Ltd. (#064-02385) was used.
(§1) Thereafter, 10 ml of each solution was dispensed into glass vials and the glass vials were sterilized by autoclave, made anaerobic, and sealed with a butyl rubber stopper. The feces suspension was prepared by collecting about 10 g of feces from 3 healthy individuals (one man and two women) in their 20s to 40s and suspending same in 80 ml of anaerobic PBS. The feces suspension was added to each vial by 0.5 ml, placed in an incubator at 37° C., and anaerobically cultured for 4 days with tumble blending once per day. After completion of the culture, an intestinal bacterial pellet was obtained from the entire amount of the culture medium by centrifugation (8,000×g, 5 min). DNA was extracted from this pellet using ISOFECAL for BeadsBeat (manufactured by NIPPON GENE CO., LTD.), and quantitative PCR was performed using GeneAce SYBR qPCR Mix α (manufactured by NIPPON GENE CO., LTD.). Quantitative PCR was performed under the conditions of 45 cycles of 95° C. for 30 sec and 60° C. for 60 sec after 95° C. for 10 min. Primers for quantitative PCR used for detection bifidobacteria are as follows:
(§2) Using the results obtained by quantitative PCR, the relative amount when the control is 1 was calculated, and the results were normalized with z-score.

bifidobacteria [2] = experiment: Experimental Example 1-2: addition test of amino acid and fructo-oligosaccharide to human feces suspension; details: amino acid added together with 0.5% FOS, anaerobic culture 4 days, quantitative PCR, compared with FOS alone
Procedure: as §1
The PBS solutions for the Examples and Comparative Examples shown in Table 1-2 were prepared and used as media for a feces culture. […]
as §2

bifidobacteria [3] = experiment: Experimental Example 2: addition test of amino acid and galacto-oligosaccharide to human feces suspension; details: amino acid added together with 0.5% GOS, anaerobic culture 4 days, quantitative PCR, compared with GOS alone
Procedure: as §1
The PBS solutions for the Examples and Comparative Examples shown in Table 2 were prepared and used as media for a feces culture. […]
as §2

CC(C)[C@H](N)C(=O)O [Val, L-valine]
proliferation of bifidobacteria (bifidobacteria [1]): greater proliferation of bifidobacteria than that with FOS alone

CC[C@H](C)[C@H](N)C(=O)O [Ile, L-isoleucine]
proliferation of bifidobacteria (bifidobacteria [1]): greater proliferation of bifidobacteria than that with FOS alone

N[C@@H](Cc1c[nH]cn1)C(=O)O [His, L-histidine]
proliferation of bifidobacteria (bifidobacteria [2]): greater proliferation of bifidobacteria than that with FOS alone

C[C@H](N)C(=O)O [Ala, L-alanine]
proliferation of bifidobacteria (bifidobacteria [1]): greater proliferation of bifidobacteria than that with FOS alone

O=C(O)[C@@H]1CCCN1 [Pro, L-proline]
proliferation of bifidobacteria (bifidobacteria [2]): greater proliferation of bifidobacteria than that with FOS alone

N[C@@H](CCC(=O)O)C(=O)O [Glu, L-glutamic acid]
proliferation of bifidobacteria (bifidobacteria [1]): greater proliferation of bifidobacteria than that with FOS alone | proliferation of bifidobacteria (bifidobacteria [3]): greater proliferation of bifidobacteria than that with GOS alone

NCCCC[C@H](N)C(=O)O [Lys, L-lysine]
proliferation of bifidobacteria (bifidobacteria [1]): greater proliferation of bifidobacteria than that with FOS alone | proliferation of bifidobacteria (bifidobacteria [3]): greater proliferation of bifidobacteria than that with GOS alone

NC(=O)CC[C@H](N)C(=O)O [Gln, L-glutamine]
proliferation of bifidobacteria (bifidobacteria [1]): greater proliferation of bifidobacteria than that with FOS alone
